Data as given in patent publication US11548893B2 (priority 2017, dated 2023).
Where two headings read alike, the source gives them in different places.

How the values were obtained:
[1] = system: EBOV_FL: full-length Ebola Zaire GP (VSV pseudotype); assay: microbe, parasite or virus in culture; assay type: cell-based, Zaire ebolavirus; settings: Zaire ebolavirus, Vero, 24 h, read-out: EC50 Pseudotype Assays EBOV_FL
in vitro = settings: African green monkey, Cytotox CC50
[2] = system: SUDV (glycoprotein, VSV pseudotype); assay: microbe, parasite or virus in culture; assay type: cell-based, Sudan ebolavirus; settings: Vesicular stomatitis virus, Vero, 24 h, read-out: EC50 Pseudotype Assays SUDV
[3] = system: EBOV (mucin-deleted glycoprotein, VSV pseudotype); assay: microbe, parasite or virus in culture; assay type: cell-based, Zaire ebolavirus; settings: read-out: EC50 Pseudotype Assays EBOV
[4] = system: BDBV (mucin-deleted glycoprotein, VSV pseudotype); assay: microbe, parasite or virus in culture; assay type: cell-based, Bundibugyo ebolavirus; settings: Vesicular stomatitis virus, Vero, 24 h, read-out: EC50 Pseudotype Assays BDBV
[5] = system: MARV (full-length glycoprotein, VSV pseudotype); assay: microbe, parasite or virus in culture; assay type: cell-based, Marburg marburgvirus; settings: for EC50: Vesicular stomatitis virus, Vero, 24 h, read-out: EC50 Pseudotype Assays MARV
[6] = system: VSV (native full-length glycoprotein); assay: microbe, parasite or virus in culture; assay type: cell-based; settings: Vesicular stomatitis virus, Vero, read-out: EC50 Pseudotype Assays VSV
[7] = microsomes, 1 h
[8] = microsomes, 1 h; remark: listed apart in the source
[9] = microsomes, 1 h; remark: listed apart in the source
[10] = microsomes, 1 h; remark: listed apart in the source

Compound	EC50 [1] [nM]	CC50 (in vitro) [nM]	EC50 [2] [nM]	EC50 ([3]; Zaire ebolavirus, Vero, 24 h) [nM]	EC50 [4] [nM]	EC50 [5] [nM]	EC50 [6] [nM]	Liver Microsome Stability % Remaining after 60 Minutes, Guinea Pig [7] [%]	Liver Microsome Stability % Remaining after 60 Minutes, Mouse [8] [%]	Liver Microsome Stability % Remaining after 60 Minutes, Monkey [9] [%]	Liver Microsome Stability % Remaining after 60 Minutes, Human [10] [%]	EC50 [3] [nM]	fold more potent against Marburgvirus infection compared to the opposite enantiomer [5] [fold]
CC12CC3CC(C(=O)N4CCC(N)CC4)(C1)CC(c1ccccc1)(C3)C2 (racemic) [Example A33]	200	13600	300	50	69	–	–	–	–	–	–	–	–
C[C@]12CC3CC(C(=O)N4CCC5(CCCN5)CC4)(C1)C[C@@](c1ccccc1)(C3)C2 [Example B10]	50	12300	110	45	71	–	–	–	–	–	–	–	–
CCC12CC3CC(C(=O)N[C@H]4CCN[C@@H](C)C4)(C1)CC(c1ccccc1)(C3)C2 (mixture of isomers) [Example A21]	20	3900	415	22	208	6910	–	–	–	–	–	–	–
CCC12CC3CC(C(=O)N[C@@H]4CCNC[C@@H]4F)(C1)CC(c1ccccc1)(C3)C2 (mixture of isomers) [Example A23]	20	7800	500	41	306	3510	–	–	–	–	–	–	–
C[C@@]12CC3CC(C(=O)N4CCC(N)CC4)(C1)C[C@](c1ccccc1)(C3)C2 [Example C7]	170	13000	335	124	198	8200	–	–	–	–	–	–	–
CC12CC3CC(C(=O)N4CCC5(CCCN5)CC4)(C1)CC(c1ccccc1)(C3)C2 (racemic) [Example A38]	70	6910	130	40	104	–	–	–	–	–	–	–	–
CCC12CC3CC(C(=O)NC4(C)CCNCC4)(C1)CC(c1ccccc1)(C3)C2 (racemic) [Example A26]	200	6700	605	130	333	2570	–	–	–	–	–	–	–
CC12CC3CC(C(=O)N[C@H]4CC[C@H](CN)CC4)(C1)CC(c1ccccc1)(C3)C2 (mixture of isomers) [Example A3]	40	8000	30	26	95	7000	> 10000	–	–	–	–	–	–
CC12CC3CC(C(=O)N4CCC5(CC4)CNC5)(C1)CC(c1ccccc1)(C3)C2 (racemic) [Example A48]	140	13700	35	14	35	–	–	87	76	22	46	–	–
CCC12CC3CC(C(=O)N[C@@H]4CCNC[C@H]4O)(C1)CC(c1ccccc1)(C3)C2 (mixture of isomers) [Example A25]	60	11800	795	41	198	8460	–	–	–	–	–	–	–
C[C@H]1C[C@@H](NC(=O)C23CC4CC(C)(C2)CC(c2ccccc2)(C4)C3)CCN1 (mixture of isomers) [Example A4]	25	11700	730	22	198	7100	> 10000	–	–	–	–	–	–
N[C@H]1CC[C@@H](NC(=O)C23CC4CC(CF)(C2)CC(c2ccccc2)(C4)C3)CC1 (mixture of isomers) [Example A28]	140	32300	1540	62	596	> 10000	–	–	–	–	–	–	–
CCC12CC3CC(C(=O)N[C@H]4CCNC[C@@H]4F)(C1)CC(c1ccccc1)(C3)C2 (mixture of isomers) [Example A19]	40	7300	465	23	261	3440	–	–	–	–	–	–	–
C[C@]12CC3CC(C(=O)N[C@H]4CCNC[C@@H]4F)(C1)C[C@@](c1ccccc1)(C3)C2 [Example B6]	20	12200	320	36	193	> 3000	–	–	–	–	–	–	–
C[C@@]12CC3CC(C(=O)N[C@H]4CC[C@H](CN)CC4)(C1)C[C@](c1ccccc1)(C3)C2 [Example C3]	30	5200	855	73	190	3170	–	–	–	–	–	–	–
CCC12CC3CC(C(=O)NC4CCNCC4(C)C)(C1)CC(c1ccccc1)(C3)C2 (racemic) [Example A20]	30	5700	330	42	135	1570	–	–	–	–	–	–	–
CCC12CC3CC(C(=O)N[C@@H]4CCNC[C@H]4F)(C1)CC(c1ccccc1)(C3)C2 (mixture of isomers) [Example A17]	25	6000	255	–	125	5910	–	–	–	–	–	39	–

Compound	EC50 [1] [nM]	CC50 (in vitro) [nM]	EC50 [2] [nM]	EC50 ([3]; Zaire ebolavirus, Vero, 24 h) [nM]	EC50 [4] [nM]	EC50 [5] [nM]	EC50 [6] [nM]	Liver Microsome Stability % Remaining after 60 Minutes, Guinea Pig [7] [%]	Liver Microsome Stability % Remaining after 60 Minutes, Mouse [8] [%]	Liver Microsome Stability % Remaining after 60 Minutes, Monkey [9] [%]	Liver Microsome Stability % Remaining after 60 Minutes, Human [10] [%]	EC50 [3] [nM]	fold more potent against Marburgvirus infection compared to the opposite enantiomer [5] [fold]
CCC12CC3CC(C(=O)N[C@H]4CC[C@H](CN)CC4)(C1)CC(c1ccccc1)(C3)C2 (mixture of isomers) [Example A22]	10	3700	416	19	185	2800	–	–	–	–	–	–	–
CC12CC3CC(C(=O)NC4CCNCC4)(C1)CC(c1ccccc1)(C3)C2 (racemic) [Example A1]	40	16100	380	42	160	2800	> 10000	–	–	–	–	–	–
C[C@]12CC3CC(C(=O)N[C@@H]4CCNC[C@H]4F)(C1)C[C@@](c1ccccc1)(C3)C2 [Example B5]	20	11900	240	19	174	> 3000	–	–	–	–	–	–	–
C[C@@]12CC3CC(C(=O)N[C@H]4CN5CCC4CC5)(C1)C[C@](c1ccccc1)(C3)C2 [Example C58]	–	10100	1010	785	188	100	–	–	–	–	–	–	16
CC12CC3CC(C(=O)N4CC5(CCNC5)C4)(C1)CC(c1ccccc1)(C3)C2 (racemic) [Example A49]	190	21900	200	23	109	–	–	–	–	–	–	–	–
C[C@@]12CC3CC(C(=O)N4CCC5(CCCN5)CC4)(C1)C[C@](c1ccccc1)(C3)C2 [Example C10]	180	12700	155	100	85	–	–	–	–	–	–	–	–
CC1(C)CN(C(=O)C23CC4C[C@@](C)(C2)C[C@](c2ccccc2)(C4)C3)CC[C@@H]1N [Example B13]	–	11300	40	14	71	–	–	50	51	32	85	–	–
C[C@@]12CC3CC(C(=O)N[C@@H]4CCNC[C@H]4F)(C1)C[C@](c1ccccc1)(C3)C2 [Example C5]	–	11600	775	169	109	> 3000	–	–	–	–	–	–	–
CCC12CC3CC(CN[C@H]4CC[C@H](N)CC4)(C1)CC(c1ccccc1)(C3)C2 (some centres unmarked) [Example A66]	–	4060	490	220	199	970	–	–	–	–	–	–	–
C[C@]12CC3CC(C(=O)N4CCC(N)C5(CC5)C4)(C1)C[C@@](c1ccccc1)(C3)C2 (some centres unmarked) [Example B9]	60	8900	75	25	85	–	–	–	–	–	–	–	–
CC12CC3CC(C(=O)N[C@@H]4CCNC[C@H]4F)(C1)CC(c1ccccc1)(C3)C2 (mixture of isomers) [Example A5]	30	11300	410	50	190	4880	> 10000	–	–	–	–	–	–
C[C@]12CC3CC(CN4CCC(N)CC4)(C1)C[C@@](c1ccccc1)(C3)C2 [Example B69]	–	4670	710	429	279	930	–	–	–	–	–	–	–
NC1CCN(CC23CC4CC(C2)CC(c2ccccc2)(C4)C3)CC1 [Example A68]	–	7470	400	600	280	> 3000	–	–	–	–	–	–	–
CC12CC3CC(C(=O)NC4CC5CC4CN5)(C1)CC(c1ccccc1)(C3)C2 (racemic) [Example A31]	–	26000	> 1000	> 1000	> 1000	> 1000	–	–	–	–	–	–	–
C[C@H]1C[C@@H](NC(=O)C23CC4C[C@](C)(C2)C[C@@](c2ccccc2)(C4)C3)CCN1 [Example C4]	30	14000	1020	78	178	> 3000	–	–	–	–	–	–	–
CC12CC3CC(C(=O)N[C@H]4CN5CCC4CC5)(C1)CC(c1ccccc1)(C3)C2 (mixture of isomers) [Example A58]	70	7200	383	74	198	282	> 10000	–	–	–	–	–	–
